In ChEMBL document CHEMBL1157988, “Loloatins A-D, cyclic decapeptide antibiotics produced in culture by a tropical marine bacterium” (1999):
≈ marks a conversion by molar mass, not a printed value. Square brackets hold non-standard residues; d marks the D form. Peptide text beside a SMILES is read from it. Orn = NCCC[C@H](N)C(=O)O

Key:
Format in all cases: functional
[1] = test system: Staphylococcus aureus; test: Antimicrobial activity against Staphylococcus aureus
[2] = test system: Staphylococcus aureus; test: Antimicrobial activity against methicillin-resistant Staphylococcus aureus
[3] = test system: Enterococcus faecalis; test: Antimicrobial activity against Enterococcus faecalis
[4] = test system: Enterococcus faecalis; test: Antimicrobial activity against vancomycin-resistant Enterococcus faecalis
[5] = test system: Enterococcus faecium; test: Antimicrobial activity against Enterococcus faecium
[6] = test system: Enterococcus faecium; test: Antimicrobial activity against vancomycin-resistant Enterococcus faecium
[7] = test system: Streptococcus pneumoniae; test: Antimicrobial activity against Streptococcus pneumoniae
[8] = test system: Streptococcus pneumoniae; test: Antimicrobial activity against penicillin-resistant Streptococcus pneumoniae
[9] = test system: Escherichia coli; test: Antimicrobial activity against Escherichia coli
[10] = test system: Pseudomonas aeruginosa; test: Antimicrobial activity against Pseudomonas aeruginosa
[11] = test system: Burkholderia cepacia; test: Antimicrobial activity against Pseudomonas cepacia
[12] = test system: Stenotrophomonas maltophilia; test: Antimicrobial activity against Xanthomonas maltophilia
[13] = test system: Candida albicans; test: Antimicrobial activity against Candida albicans

SMILES | MIC [1] [µg/mL] | MIC [2] [µg/mL] | MIC [3] [µg/mL] | MIC [4] [µg/mL] | MIC [5] [µg/mL] | MIC [6] [µg/mL] | MIC [7] [µg/mL] | MIC [8] [µg/mL] | MIC [9] [µg/mL] | MIC [10] [µg/mL] | MIC [11] [µg/mL] | MIC [12] [µg/mL] | MIC [13] [µg/mL]
CC(C)C[C@@H]1NC(=O)[C@H](CCCN)NC(=O)[C@H](C(C)C)NC(=O)[C@H](Cc2c[nH]c3ccccc23)NC(=O)[C@H](CC(=O)O)NC(=O)[C@H](CC(N)=O)NC(=O)[C@@H](Cc2ccccc2)NC(=O)[C@H](Cc2ccccc2)NC(=O)[C@@H]2C[C@@H](O)CN2C(=O)[C@@H](Cc2ccc(O)cc2)NC1=O [LOLOATIN D] | 8 (≈ 6.1 µM) | 8 (≈ 6.1 µM) | 8 (≈ 6.1 µM) | 8 (≈ 6.1 µM) | 8 (≈ 6.1 µM) | 8 (≈ 6.1 µM) | 4 (≈ 3.05 µM) | 4 (≈ 3.05 µM) | > 32 | > 32 | > 32 | > 32 | 16 (≈ 12.2 µM)
CC(C)C[C@@H]1NC(=O)[C@H](CCCN)NC(=O)[C@H](C(C)C)NC(=O)[C@H](Cc2ccc(O)cc2)NC(=O)[C@H](CC(=O)O)NC(=O)[C@H](CC(N)=O)NC(=O)[C@@H](Cc2ccccc2)NC(=O)[C@H](Cc2ccccc2)NC(=O)[C@@H]2CCCN2C(=O)[C@@H](Cc2ccc(O)cc2)NC1=O [LOLOATIN A] | 4 (≈ 3.14 µM) | 4 (≈ 3.14 µM) | 4 (≈ 3.14 µM) | 4 (≈ 3.14 µM) | 4 (≈ 3.14 µM) | 4 (≈ 3.14 µM) | 1 (≈ 0.785 µM) | 2 (≈ 1.57 µM) | > 32 | > 32 | > 32 | > 32 | 8 (≈ 6.28 µM)
CC(C)C[C@@H]1NC(=O)[C@H](CCCN)NC(=O)[C@H](C(C)C)NC(=O)[C@H](Cc2c[nH]c3ccccc23)NC(=O)[C@H](CC(=O)O)NC(=O)[C@H](CC(N)=O)NC(=O)[C@@H](Cc2ccccc2)NC(=O)[C@H](Cc2c[nH]c3ccccc23)NC(=O)[C@@H]2CCCN2C(=O)[C@@H](Cc2ccc(O)cc2)NC1=O [LOLOATIN C] (cyclo(DWV[Orn]L[dY]PW[dF]N)) | 0.5 (≈ 0.374 µM) | 0.5 (≈ 0.374 µM) | 1 (≈ 0.749 µM) | 1 (≈ 0.749 µM) | 2 (≈ 1.5 µM) | 2 (≈ 1.5 µM) | < 0.25 |  | 1 (≈ 0.749 µM) | > 32 | > 32 | > 32 | 8 (≈ 5.99 µM)
CC(C)C[C@@H]1NC(=O)[C@H](CCCN)NC(=O)[C@H](C(C)C)NC(=O)[C@H](Cc2c[nH]c3ccccc23)NC(=O)[C@H](CC(=O)O)NC(=O)[C@H](CC(N)=O)NC(=O)[C@@H](Cc2ccccc2)NC(=O)[C@H](Cc2ccccc2)NC(=O)[C@@H]2CCCN2C(=O)[C@@H](Cc2ccc(O)cc2)NC1=O [LOLOATIN B] | 2 (≈ 1.54 µM) | 2 (≈ 1.54 µM) | 2 (≈ 1.54 µM) | 2 (≈ 1.54 µM) | 2 (≈ 1.54 µM) | 2 (≈ 1.54 µM) | 1 (≈ 0.771 µM) | 1 (≈ 0.771 µM) | > 32 | > 32 | > 32 | > 32 | 8 (≈ 6.17 µM)
